In patent US20070293484A1, “Thiophene Heteroaryl Amines” (SUGEN, INC., priority 2004, published 2007):

Tests used:
GST-Flk1 = target: T1, GST-Flk1 (Mus musculus, UniProt P35918); test: GST-FLK-1 bioassay (ELISA, tyrosine kinase activity on poly(glu,tyr)); type: biochemical
T1 construct: GST-Flk1cd purified from sf9 recombinant baculovirus transformation (SUGEN, Inc.); host or cells: Sf9 insect cells (recombinant baculovirus)
Experimental: The assays described herein are performed in an ELISA (Enzyme-Linked Immunosorbent Sandwich Assay) format (Voller, et al., 1980, “Enzyme-Linked Immunosorbent Assay,” Manual of Clinical Immunology, 2d ed., Rose and Friedman, Am. Soc. Of Microbiology, Washington, D.C., pp. 359-371). The general procedure is as follows: a compound is introduced to cells expressing the test kinase, either naturally or recombinantly, for a selected period of time after which, if the test kinase is a receptor, a ligand known to activate the receptor is added. The cells are lysed and the lysate is transferred to the wells of an ELISA plate previously coated with a specific antibody recognizing the substrate of the enzymatic phosphorylation reaction. Non-substrate components of the cell lysate are washed away and the amount of phosphorylation on the substrate is detected with an antibody specifically recognizing phosphotyrosine compared with control cells that were not contacted with a test compound.
This assay analyzes the tyrosine kinase activity of GST-Flk1 on poly(glu,tyr) peptides.
• 1. Corning 96-well ELISA plates (Corning Catalog No. 5805-96). • 2. poly(glu,tyr) 4:1, lyophilizate (Sigma Catalog #P0275). • 3. Preparation of poly(glu,tyr)(pEY) coated assay plates: Coat 2 ug/well of poly(glu,tyr)(pEY) in 100 μL PBS, hold at room temperature for 2 hours or at 4° C. overnight. Cover plates well to prevent evaporation. • 4. PBS Buffer: for 1 L, mix 0.2 g KH2PO4, 1.15 g Na2HPO4, 0.2 g KCl and 8 g NaCl in approx. 900 ml dH2O. When all reagents have dissolved, adjust the pH to 7.2 with HCl. Bring total volume to 1 L with dH2O. • 5. PBST Buffer: to 1 L of PBS Buffer, add 1.0 ml Tween-20. • 6. TBB—Blocking Buffer: for 1 L, mix 1.21 g TRIS, 8.77 g NaCl, 1 ml TWEEN-20 in approximately 900 ml dH2O. Adjust pH to 7.2 with HCl. Add 10 g BSA, stir to dissolve. Bring total volume to 1 L with dH2O. Filter to remove particulate matter. • 7. 1% BSA in PBS: To make a 1× working solution, add 10 g BSA to approx. 990 ml PBS buffer, stir to dissolve. Adjust total volume to 1 L with PBS buffer, filter to remove particulate matter. • 8. 50 mM Hepes pH 7.5. • 9. GST-Flk1cd purified from sf9 recombinant baculovirus transformation (SUGEN, Inc.). • 10. 4% DMSO in dH2O. • 11. 10 mMATP in dH2O. • 12. 40 mM MnCl2 • 13. Kinase Dilution Buffer (KDB): mix 10 ml Hepes (pH 7.5), 1 ml 5M NaCl, 40 μL 100 mM sodium orthovanadate and 0.4 ml of 5% BSA in dH2O with 88.56 ml dH2O. • 14. NUNC 96-well V bottom polypropylene plates, Applied Scientific Catalog #AS-72092 • 15. EDTA: mix 14.12 g ethylenediaminetetraacetic acid (EDTA) to approx. 70 ml dH2O. Add 10 N NaOH until EDTA dissolves. Adjust pH to 8.0. Adjust total volume to 100 ml with dH2O. • 16. 1^0 Antibody Dilution Buffer: mix 10 ml of 5% BSA in PBS buffer with 89.5 ml TBST. • 17. Anti-phosphotyrosine monoclonal antibody conjugated to horseradish peroxidase (PY99 HRP, Santa Cruz Biotech). • 18. 2,2′-Azinobis(3-ethylbenzthiazoline-6-sulfonic acid (ABTS, Moss, Cat. No. ABST). • 19. 10% SDS. Procedure: • 1. Coat Corning 96-well ELISA plates with 2 μg of polyEY peptide in sterile PBS as described in step 3 of Materials and Reagents. • 2. Remove unbound liquid from wells by inverting plate. Wash once with TBST. Pat the plate on a paper towel to remove excess liquid. • 3. Add 100 μl of 1% BSA in PBS to each well. Incubate, with shaking, for 1 hr. at room temperature. • 4. Repeat step 2. • 5. Soak wells with 50 mM HEPES (pH7.5) (150 μl/well). • 6. Dilute test compound with dH2O/4% DMSO to 4 times the desired final assay concentration in 96-well polypropylene plates. • 7. Add 25 μl diluted test compound to ELISA plate. In control wells, place 25 μl of dH2O/4% DMSO. • 8. Add 25 μl of 40 mM MnCl2 with 4×ATP (2 μM) to each well. • 9. Add 25 μl 0.5M EDTA to negative control wells. • 10. Dilute GST-Flk1 to 0.005 μg (5 ng)/well with KDB. • 11. Add 50 μl of diluted enzyme to each well. • 12. Incubate, with shaking, for 15 minutes at room temperature. • 13. […]

PDGFR = target: T2, PDGFR (Homo sapiens, UniProt P09619); test: PDGFR bioassay (ELISA, in vitro kinase activity); type: biochemical; settings: PDGFR-β expressing NIH 3T3 cell lysate; read-out: IC50 (μM) PDGF-R
T2 construct: SUGEN, Inc; host or cells: NIH 3T3 cell lysate; receptor captured on plate with monoclonal anti-PDGFR antibody 28D4C10
T2 sequence (P09619 33-1106, species assumed): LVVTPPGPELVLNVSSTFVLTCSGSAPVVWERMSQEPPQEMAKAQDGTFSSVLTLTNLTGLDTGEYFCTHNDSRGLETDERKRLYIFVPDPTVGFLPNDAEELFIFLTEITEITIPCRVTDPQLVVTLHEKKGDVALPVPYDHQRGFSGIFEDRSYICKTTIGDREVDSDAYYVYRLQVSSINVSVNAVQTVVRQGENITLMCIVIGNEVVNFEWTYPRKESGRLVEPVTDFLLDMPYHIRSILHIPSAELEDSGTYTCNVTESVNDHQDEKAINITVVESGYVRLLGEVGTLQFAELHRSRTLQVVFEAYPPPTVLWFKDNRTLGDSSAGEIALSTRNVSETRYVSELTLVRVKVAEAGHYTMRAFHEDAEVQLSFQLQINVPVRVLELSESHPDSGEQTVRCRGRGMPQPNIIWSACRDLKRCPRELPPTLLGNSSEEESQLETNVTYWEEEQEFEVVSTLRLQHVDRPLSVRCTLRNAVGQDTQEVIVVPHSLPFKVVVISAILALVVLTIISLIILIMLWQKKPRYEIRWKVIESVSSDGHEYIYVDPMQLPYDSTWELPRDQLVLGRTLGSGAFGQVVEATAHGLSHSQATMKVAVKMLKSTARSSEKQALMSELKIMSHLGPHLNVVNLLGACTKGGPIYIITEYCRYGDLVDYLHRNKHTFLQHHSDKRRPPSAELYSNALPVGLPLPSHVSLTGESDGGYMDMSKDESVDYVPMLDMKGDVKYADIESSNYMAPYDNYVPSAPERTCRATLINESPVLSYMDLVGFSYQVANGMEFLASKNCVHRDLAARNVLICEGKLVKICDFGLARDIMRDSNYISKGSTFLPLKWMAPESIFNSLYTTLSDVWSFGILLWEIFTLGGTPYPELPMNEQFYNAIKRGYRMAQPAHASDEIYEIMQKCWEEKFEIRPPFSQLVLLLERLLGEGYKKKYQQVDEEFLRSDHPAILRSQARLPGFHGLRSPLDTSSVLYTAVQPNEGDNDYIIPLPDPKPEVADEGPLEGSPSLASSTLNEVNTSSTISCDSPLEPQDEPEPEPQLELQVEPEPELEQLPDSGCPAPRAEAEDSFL

T1 sequence (P35918 784-1345 limits assumed): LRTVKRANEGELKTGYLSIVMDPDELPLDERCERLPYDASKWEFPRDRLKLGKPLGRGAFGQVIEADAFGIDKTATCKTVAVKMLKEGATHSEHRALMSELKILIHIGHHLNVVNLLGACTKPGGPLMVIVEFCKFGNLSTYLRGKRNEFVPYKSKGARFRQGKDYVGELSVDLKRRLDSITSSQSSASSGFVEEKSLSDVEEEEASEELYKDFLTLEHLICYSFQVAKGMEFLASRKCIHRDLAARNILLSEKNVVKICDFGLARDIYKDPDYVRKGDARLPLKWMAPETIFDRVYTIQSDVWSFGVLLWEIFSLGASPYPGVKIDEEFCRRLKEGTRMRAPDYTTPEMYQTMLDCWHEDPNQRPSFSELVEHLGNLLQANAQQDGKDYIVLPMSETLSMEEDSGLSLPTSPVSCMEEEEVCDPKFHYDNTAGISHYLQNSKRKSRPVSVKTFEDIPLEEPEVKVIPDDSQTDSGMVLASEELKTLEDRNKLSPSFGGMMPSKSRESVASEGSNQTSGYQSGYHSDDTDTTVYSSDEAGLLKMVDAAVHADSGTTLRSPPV

IC50 (GST-Flk1) [µM] | IC50 (PDGFR) [µM] | SMILES
4.17 | 0.94 | CC(=O)Nc1cccc(Nc2ncc(-c3cccs3)cn2)c1 [Example 14, N-{3-[(5-thien-2-ylpyrimidin-2-yl)amino]phenyl}acetamide]
6 | 0.55 | CCN(CC)CC(=O)Nc1ccc(Nc2ncc(-c3ccsc3)cn2)cc1 [Example 27, N-(4-(5-(thiophen-3-yl)pyrimidin-2-ylamino)phenyl)-2-(diethylamino)acetamide]
2 | 0.12 | O=C(NCC(O)CN1CCOCC1)Nc1cccc(Nc2ncc(-c3ccsc3)cn2)c1 (stereo not drawn) [Example 51, 1-(2-hydroxy-3-morpholin-4-yl-propyl)-3-[3-(5-thiophen-3-yl-pyrimidin-2-ylamino)-phenyl]-urea]
